The values that follow come from US12606528B2, “Methods and materials for inhibiting NF-kB activity” (University of Pittsburgh - Of the Commonwealth System of …, priority 2019, dated 2026).

The structures appear in SMILES notation. Some results are limits rather than exact numbers.

The first assay relates to NF-κB. Nature of the assay: NF-κB assay: THP1-NF-κB-LUC cells, LPS-stimulated secreted luciferase. The following applies: THP1-NF-κB-LUC cells, LPS-stimulated; read-out: IC50 (NF-κB assay). It counts as cell-based. The procedure, abridged: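 THP1-NF-κB-LUC cells (25k/well) were pretreated with compounds for 2 h, then stimulated with LPS (10 ng/mL) for 18 h. Secreted luciferase was measured and normalized to vehicle, and IC50 was fitted from the concentration series.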
Turning to `CCCS(=O)(=O)c1oc(-c2ccc(F)cc2)nc1S(=O)(=O)c1ccc(Br)cc1` [BC18588], the half-inhibitory concentration (IC50) was less than 100 nM.
In the case of `Cc1cccc(-c2nc3ccc(C(=O)NCCN4CCCC4)cc3nc2-c2cccc(C)c2)c1` [BC18430], the IC50 was 1000 to 10000 nM.
As to `CCCN(CCC)CCNC(=O)c1ccc2nc(-c3cccc(C)c3)c(-c3cccc(C)c3)nc2c1` [BC18419], the half-inhibitory concentration (IC50) fell in the range of 1000 to 10000 nM.
On to `COCCNC(=O)c1ccc2nc(-c3ccc(F)cc3)c(-c3ccc(F)cc3)nc2c1` [BC18470], for which the half-maximal inhibitory concentration (IC50) was less than 100 nM.
On the same count and under the same terms, in the case of `CCSc1oc(-c2ccc(F)cc2)nc1S(=O)(=O)c1ccc(F)cc1` [BC18561] it was 1000 to 10000 nM; in that of `CCS(=O)(=O)c1oc(-c2ccc(F)cc2)nc1S(=O)(=O)c1ccc(F)cc1` [BC18532], less than 100 nM; in that of `O=C(NC1CC1)c1ccc2nc(-c3ccc(F)cc3)c(-c3ccc(F)cc3)nc2c1` [BC18448], less than 100 nM.
For `CCCSc1oc(-c2ccc(F)cc2)nc1S(=O)(=O)c1ccc(C)cc1` [BC18571], the 50% inhibitory concentration (IC50) lay in the range of 1000 to 10000 nM.
As to `Cc1cccc(-c2nc3ccc(C(=O)NCCN4CCCCC4C)cc3nc2-c2cccc(C)c2)c1` (stereo not drawn) [BC18441], the IC50 was 1000 to 10000 nM.
For the compound `O=C(NCCN1CCOCC1)c1ccc2nc(-c3ccccc3)c(-c3ccccc3)nc2c1` [BC18464], the half-inhibitory concentration (IC50) is less than 100 nM.
On to `CCCSc1oc(-c2ccc(F)cc2)nc1S(=O)(=O)c1ccc(Cl)cc1` [BC18584], for which the half-maximal inhibitory concentration (IC50) is greater than 10000 nM.
The same measure, in the same setting: the figure for `COc1cccc(CNC(=O)c2ccc3nc(-c4ccc(F)cc4)c(-c4ccc(F)cc4)nc3c2)c1` [BC18408] is 100 to 1000 nM; for `CCC(C)Sc1oc(-c2ccc(F)cc2)nc1S(=O)(=O)c1ccccc1` (stereo not drawn) [BC18570] it is 1000 to 10000 nM.
For `O=C(NCCN1CCCCCC1)c1ccc2nc(-c3ccccc3)c(-c3ccccc3)nc2c1` [BC18461], the 50% inhibitory concentration (IC50) is less than 100 nM.
`CC(=O)CSc1oc(-c2ccc(C)cc2)nc1S(=O)(=O)c1ccccc1` [BC18525]: the 50% inhibitory concentration (IC50) was greater than 10000 nM.
As for `CN(C)c1ccc(CNC(=O)c2ccc3nc(-c4ccc(F)cc4)c(-c4ccc(F)cc4)nc3c2)cc1` [BC18478], the IC50 is 100 to 1000 nM.
As for `O=C(NC1CC1)c1ccc2nc(-c3ccccc3)c(-c3ccccc3)nc2c1` [BC18439], the IC50 is less than 100 nM.
As for `CS(=O)(=O)c1oc(-c2ccc(F)cc2)nc1S(=O)(=O)c1ccc(Br)cc1` [BC18566], the half-inhibitory concentration (IC50) is less than 100 nM.
Consider `CC(C)CSc1oc(-c2ccc(F)cc2)nc1S(=O)(=O)c1ccc(Cl)cc1` [BC18541], for which the concentration for half-maximal inhibition (IC50) is greater than 10000 nM.
For the compound `CC(CNC(=O)c1ccc2nc(-c3ccc(F)cc3)c(-c3ccc(F)cc3)nc2c1)c1ccccc1` (stereo not drawn) [BC18467], the IC50 lay in the range of 100 to 1000 nM.
On to `Cc1cccc(-c2nc3ccc(C(=O)NCCN4CCCCC4)cc3nc2-c2cccc(C)c2)c1` [BC18485], for which the IC50 is 1000 to 10000 nM.
Same read-out and setting: in the case of `O=C(c1ccc2nc(-c3ccccc3)c(-c3ccccc3)nc2c1)N1CCN(C(=O)c2ccco2)CC1` [BC18462] it was less than 100 nM; in that of `Cc1cccc(-c2nc3ccc(C(=O)NCCN(C)C4CCCCC4)cc3nc2-c2cccc(C)c2)c1` [BC18474], 1000 to 10000 nM; in that of `NC(=O)CSc1oc(-c2ccc(F)cc2)nc1S(=O)(=O)c1ccc(F)cc1` [BC18539], greater than 10000 nM.
For `CCOc1ccccc1CNC(=O)c1ccc2nc(-c3ccc(F)cc3)c(-c3ccc(F)cc3)nc2c1` [BC18401], the IC50 is 100 to 1000 nM.
As to `O=S(=O)(c1ccccc1)c1nc(-c2ccccc2)oc1SCc1ccccc1F` [BC18534], the concentration for half-maximal inhibition (IC50) is greater than 10000 nM.
In the case of `CCS(=O)(=O)c1oc(-c2ccc(F)cc2)nc1S(=O)(=O)c1ccccc1` [BC18508], the half-inhibitory concentration (IC50) was less than 100 nM.
Consider `CNC(=O)c1ccc2nc(-c3ccccc3)c(-c3ccccc3)nc2c1` [BC18450], for which the IC50 was less than 100 nM.
Take `CSc1oc(-c2ccc(F)cc2)nc1S(=O)(=O)c1ccccc1` [BC18515]: the 50% inhibitory concentration (IC50) is greater than 10000 nM.
As for `CCN1CCN(CCCNC(=O)c2ccc3nc(-c4ccccc4)c(-c4ccccc4)nc3c2)CC1` [BC18472], the 50% inhibitory concentration (IC50) was 100 to 1000 nM.
Consider `O=C(NCc1ccc(Cl)cc1)c1ccc2nc(-c3ccccc3)c(-c3ccccc3)nc2c1` [BC18421], for which the IC50 is greater than 10000 nM.
The same measure, in the same setting: the figure for `CCCSc1oc(-c2ccc(F)cc2)nc1S(=O)(=O)c1ccc(Br)cc1` [BC18574] is greater than 10000 nM.
As to `CCSc1oc(-c2ccc(F)cc2)nc1S(=O)(=O)c1ccccc1` [BC18526], the IC50 was in the range of 1000 to 10000 nM.
For `CC(C)CS(=O)(=O)c1oc(-c2ccc(F)cc2)nc1S(=O)(=O)c1ccccc1` [BC18575], the 50% inhibitory concentration (IC50) is less than 100 nM.
With `CSc1oc(-c2ccccc2)nc1S(=O)(=O)c1ccc(F)cc1` [BC18545], the IC50 was 1000 to 10000 nM.
As for `CCSc1oc(-c2ccccc2)nc1S(=O)(=O)c1ccccc1` [BC18512], the 50% inhibitory concentration (IC50) was in the range of 1000 to 10000 nM.
Still for that read-out and setting: the figure for `CCCSc1oc(-c2ccccc2)nc1S(=O)(=O)c1ccc(Cl)cc1` [BC18535] is 1000 to 10000 nM; for `CC(C)CS(=O)(=O)c1oc(-c2ccc(F)cc2)nc1S(=O)(=O)c1ccc(Cl)cc1` [BC18555] it is less than 100 nM.

The same assay, now with this note: THP1-NF-κB-LUC cells; compounds 2 hours before LPS (10 ng/mL) for 18 hours; secreted luciferase; read-out: IC50 (NF-κB assay).
Turning to `CCc1ccc(NS(=O)(=O)c2cc3c(cc2C)N(C(C)=O)CCO3)cc1` [BC181329], the IC50 is 1000 to 10000 nM.
For the compound `CCc1ccc(C(=O)C2=CN(c3ccccc3)c3ccc(F)cc3S2(=O)=O)cc1` [BC18318], the half-maximal inhibitory concentration (IC50) is greater than 10000 nM.
For `Cc1cc2c(cc1S(=O)(=O)Nc1ccccc1)OCC(=O)N2` [BC181310], the IC50 is less than 100 nM.
On to `CCn1cc(S(=O)(=O)c2ccc(C)cc2)c(=O)c2cc(F)ccc21` [BC18325], for which the half-maximal inhibitory concentration (IC50) is greater than 10000 nM.
For the compound `CCOC(=O)c1cccc(NS(=O)(=O)c2cc3c(cc2C)NC(=O)CO3)c1` [BC181334], the 50% inhibitory concentration (IC50) was 1000 to 10000 nM.
Take `COc1cccc2cc(S(=O)(=O)c3ccc(C)c(Cl)c3)c(=O)oc12` [BC18319]: the half-inhibitory concentration (IC50) is greater than 10000 nM.
As for `Cc1cc2c(cc1S(=O)(=O)Nc1ccc(CCC(=O)O)cc1)OCC(=O)N2` [BC181300], the concentration for half-maximal inhibition (IC50) was greater than 10000 nM.
Regarding `COc1ccc(S(=O)(=O)c2cn(CC(=O)Nc3ccccc3)c3ccc(F)cc3c2=O)cc1` [BC18332], the 50% inhibitory concentration (IC50) is greater than 10000 nM.
As to `COc1ccc2[nH]cc(S(=O)(=O)c3ccc(OC)c(OC)c3)c(=O)c2c1` [BC18338], the IC50 was greater than 10000 nM.
With `CC(=O)N1CCOc2cc(S(=O)(=O)Nc3ccc(F)cc3F)c(C)cc21` [BC181372], the concentration for half-maximal inhibition (IC50) was in the range of 1000 to 10000 nM.
On to `Cc1ccc(NS(=O)(=O)c2cc3c(cc2C)N(C)CCO3)cc1F` [BC181309], for which the IC50 is greater than 10000 nM.
In the case of `N#Cc1ccc(S(=O)(=O)c2c[nH]c3cc(F)ccc3c2=O)cc1F` [BC18339], the 50% inhibitory concentration (IC50) was 100 to 1000 nM.
Still for that read-out and setting: in the case of `CCc1ccccc1NS(=O)(=O)c1cc2c(cc1C)NC(=O)CO2` [BC181356] it was greater than 10000 nM.
Turning to `Cc1cc2c(cc1S(=O)(=O)Nc1c(C)cccc1C)OCC(=O)N2` [BC181323], the IC50 is greater than 10000 nM.
The same measure, in the same setting: the figure for `N#Cc1cccc(S(=O)(=O)c2c[nH]c3cc(C#N)ccc3c2=O)c1` [BC18310] is less than 100 nM; for `COc1ccc2[nH]cc(S(=O)(=O)c3ccc(C)c(F)c3)c(=O)c2c1` [BC18307] it is 100 to 1000 nM; for `Cc1cc(C)c(S(=O)(=O)c2ccc(Br)cc2)c(=O)[nH]1` [BC18315] it is greater than 10000 nM.
Take `CC(=O)N1CCOc2cc(S(=O)(=O)Nc3ccc(Cl)cc3)c(C)cc21` [BC181361]: the IC50 was 100 to 1000 nM.
Regarding `CCOc1ccc2[nH]cc(S(=O)(=O)c3ccc(CO)cc3)c(=O)c2c1` [BC18323], the half-inhibitory concentration (IC50) lay within 100 to 1000 nM.
